In the NIST ThermoML archive (doi:10.1016/j.jct.2006.04.007):
Where “and” joins values, the source holds several entries; their conditions need not be identical. Equal entries are not always repeated. Numbers after ± are expanded uncertainties.

Assay: mn = molality of the nth substance listed, in mol/kg
Settings: 350 kPa, Liquid; for apparent molar heat capacity: Extra sensitive DSC

CC(=O)N[C@@H](C=O)[C@@H](O)[C@H](O)[C@H](O)CO [N-acetyl-D-glucosamine] + O
Settings | apparent molar heat capacity | mass density
278.15 K, m1 = 0.0096 | 385 ± 110 J/K/mol | –
278.15 K, m1 = 0.01 | – | 1000.31 ± 0.98 kg/m3
278.15 K, m1 = 0.02 | – | 1001.78 ± 0.99 kg/m3
278.15 K, m1 = 0.0207 | 377 ± 51 J/K/mol | –
278.15 K, m1 = 0.03 | 365 ± 36 J/K/mol and 358 ± 36 J/K/mol | 1002.26 ± 0.99 kg/m3 and 1001.98 ± 0.99 kg/m3
278.15 K, m1 = 0.07 | 362 ± 16 J/K/mol | 1005.5 ± 1 kg/m3
278.15 K, m1 = 0.1502 | 348.5 ± 8.3 J/K/mol | 1012.23 ± 1.1 kg/m3
278.15 K, m1 = 0.1999 | 368.5 ± 6.8 J/K/mol | 1014.67 ± 1.1 kg/m3
278.15 K, m1 = 0.3018 | 373.1 ± 5.3 J/K/mol | 1021.8 ± 1.2 kg/m3
278.15 K, m1 = 0.5001 | 378.3 ± 4.3 J/K/mol | 1035.28 ± 1.4 kg/m3
278.15 K, m1 = 0.7003 | 380.2 ± 3.9 J/K/mol | 1047.7 ± 1.6 kg/m3
278.15 K, m1 = 0.958 | 358.2 ± 3.7 J/K/mol | 1065.18 ± 1.8 kg/m3
283.15 K, m1 = 0.0096 | 416 ± 110 J/K/mol | –
283.15 K, m1 = 0.01 | – | 1000.13 ± 0.97 kg/m3
283.15 K, m1 = 0.02 | – | 1001.42 ± 0.98 kg/m3
283.15 K, m1 = 0.0207 | 403 ± 50 J/K/mol | –
283.15 K, m1 = 0.03 | 385 ± 35 J/K/mol and 387 ± 36 J/K/mol | 1001.76 ± 0.99 kg/m3 and 1002.02 ± 0.99 kg/m3
283.15 K, m1 = 0.07 | 385 ± 16 J/K/mol | 1005.11 ± 1 kg/m3
283.15 K, m1 = 0.1502 | 374.5 ± 8.2 J/K/mol | 1011.82 ± 1.1 kg/m3
283.15 K, m1 = 0.1999 | 392.8 ± 6.7 J/K/mol | 1014.24 ± 1.1 kg/m3
283.15 K, m1 = 0.3018 | 396.5 ± 5.3 J/K/mol | 1021.3 ± 1.2 kg/m3
283.15 K, m1 = 0.5001 | 401.6 ± 4.3 J/K/mol | 1034.59 ± 1.4 kg/m3
283.15 K, m1 = 0.7003 | 403.8 ± 3.8 J/K/mol | 1046.91 ± 1.6 kg/m3
283.15 K, m1 = 0.958 | 381.8 ± 3.6 J/K/mol | 1064.21 ± 1.8 kg/m3
288.15 K, m1 = 0.0096 | 435 ± 110 J/K/mol | –
288.15 K, m1 = 0.01 | – | 999.6 ± 0.98 kg/m3
288.15 K, m1 = 0.02 | – | 1000.86 ± 0.98 kg/m3
288.15 K, m1 = 0.0207 | 421 ± 50 J/K/mol | –
288.15 K, m1 = 0.03 | 404 ± 35 J/K/mol and 401 ± 35 J/K/mol | 1001.23 ± 0.98 kg/m3 and 1001.43 ± 0.98 kg/m3
288.15 K, m1 = 0.07 | 405 ± 16 J/K/mol | 1004.42 ± 1 kg/m3
288.15 K, m1 = 0.1502 | 394.4 ± 8.3 J/K/mol | 1011.1 ± 1.1 kg/m3
288.15 K, m1 = 0.1999 | 411.9 ± 7 J/K/mol | 1013.51 ± 1.1 kg/m3
288.15 K, m1 = 0.3018 | 415.2 ± 5.5 J/K/mol | 1020.51 ± 1.2 kg/m3
288.15 K, m1 = 0.5001 | 420.1 ± 4.5 J/K/mol | 1033.66 ± 1.4 kg/m3
288.15 K, m1 = 0.7003 | 422 ± 4.2 J/K/mol | 1045.87 ± 1.5 kg/m3
288.15 K, m1 = 0.958 | 400.5 ± 4 J/K/mol | 1063.03 ± 1.8 kg/m3
293.15 K, m1 = 0.0096 | 450 ± 110 J/K/mol | –
293.15 K, m1 = 0.0207 | 436 ± 49 J/K/mol | –
293.15 K, m1 = 0.03 | 420 ± 34 J/K/mol and 415 ± 34 J/K/mol | –
293.15 K, m1 = 0.07 | 421 ± 16 J/K/mol | –
293.15 K, m1 = 0.1502 | 411.4 ± 8.2 J/K/mol | –
293.15 K, m1 = 0.1999 | 428.3 ± 6.8 J/K/mol | –
293.15 K, m1 = 0.3018 | 431.3 ± 5.4 J/K/mol | –
293.15 K, m1 = 0.5001 | 436 ± 4.5 J/K/mol | –
293.15 K, m1 = 0.7003 | 437.9 ± 4 J/K/mol | –
293.15 K, m1 = 0.958 | 416.6 ± 3.9 J/K/mol | –
298.15 K, m1 = 0.0096 | 462 ± 100 J/K/mol | –
298.15 K, m1 = 0.0207 | 449 ± 49 J/K/mol | –
298.15 K, m1 = 0.03 | 433 ± 34 J/K/mol and 432 ± 34 J/K/mol | –
298.15 K, m1 = 0.07 | 437 ± 16 J/K/mol | –
298.15 K, m1 = 0.1502 | 426.5 ± 8.1 J/K/mol | –
298.15 K, m1 = 0.1999 | 442.5 ± 6.7 J/K/mol | –
298.15 K, m1 = 0.3018 | 445.2 ± 5.3 J/K/mol | –
298.15 K, m1 = 0.5001 | 449.8 ± 4.3 J/K/mol | –
298.15 K, m1 = 0.7003 | 451.5 ± 3.8 J/K/mol | –
298.15 K, m1 = 0.958 | 430.5 ± 3.8 J/K/mol | –
303.15 K, m1 = 0.0096 | 474 ± 100 J/K/mol | –
303.15 K, m1 = 0.0207 | 461 ± 48 J/K/mol | –
303.15 K, m1 = 0.03 | 445 ± 34 J/K/mol and 447 ± 34 J/K/mol | –
303.15 K, m1 = 0.07 | 451 ± 15 J/K/mol | –
303.15 K, m1 = 0.1502 | 440 ± 8 J/K/mol | –
303.15 K, m1 = 0.1999 | 455 ± 6.6 J/K/mol | –
303.15 K, m1 = 0.3018 | 457.8 ± 5.2 J/K/mol | –
303.15 K, m1 = 0.5001 | 462.3 ± 4.2 J/K/mol | –
303.15 K, m1 = 0.7003 | 463.7 ± 3.8 J/K/mol | –
303.15 K, m1 = 0.958 | 443.2 ± 3.6 J/K/mol | –
308.15 K, m1 = 0.0096 | 486 ± 100 J/K/mol | –
308.15 K, m1 = 0.01 | – | 994.68 ± 1 kg/m3
308.15 K, m1 = 0.02 | – | 995.7 ± 1 kg/m3
308.15 K, m1 = 0.0207 | 472 ± 48 J/K/mol | –
308.15 K, m1 = 0.03 | 456 ± 34 J/K/mol and 459 ± 34 J/K/mol | 996.2 ± 1 kg/m3 and 996.26 ± 1 kg/m3
308.15 K, m1 = 0.07 | 462 ± 15 J/K/mol | 999.2 ± 0.98 kg/m3
308.15 K, m1 = 0.1502 | 452.2 ± 7.8 J/K/mol | 1005.72 ± 1 kg/m3
308.15 K, m1 = 0.1999 | 466.4 ± 6.5 J/K/mol | 1008.07 ± 1.1 kg/m3
308.15 K, m1 = 0.3018 | 469.2 ± 5.1 J/K/mol | 1014.85 ± 1.1 kg/m3
308.15 K, m1 = 0.5001 | 473.5 ± 4.1 J/K/mol | 1027.59 ± 1.3 kg/m3
308.15 K, m1 = 0.7003 | 474.7 ± 3.7 J/K/mol | 1039.58 ± 1.5 kg/m3
308.15 K, m1 = 0.958 | 454.6 ± 3.5 J/K/mol | 1056.31 ± 1.7 kg/m3
313.15 K, m1 = 0.0096 | 496 ± 100 J/K/mol | –
313.15 K, m1 = 0.0207 | 482 ± 48 J/K/mol | –
313.15 K, m1 = 0.03 | 465 ± 33 J/K/mol and 470 ± 33 J/K/mol | –
313.15 K, m1 = 0.07 | 473.4 ± 15 J/K/mol | –
313.15 K, m1 = 0.1502 | 463.3 ± 7.8 J/K/mol | –
313.15 K, m1 = 0.1999 | 476.7 ± 6.3 J/K/mol | –
313.15 K, m1 = 0.3018 | 479.6 ± 5 J/K/mol | –
313.15 K, m1 = 0.5001 | 483.8 ± 4 J/K/mol | –
313.15 K, m1 = 0.7003 | 484.8 ± 3.5 J/K/mol | –
313.15 K, m1 = 0.958 | 465.2 ± 3.5 J/K/mol | –
318.15 K, m1 = 0.0096 | 506 ± 100 J/K/mol | –
318.15 K, m1 = 0.01 | – | 990.9 ± 1.1 kg/m3
318.15 K, m1 = 0.02 | – | 991.84 ± 1.1 kg/m3
318.15 K, m1 = 0.0207 | 491 ± 47 J/K/mol | –
318.15 K, m1 = 0.03 | 474 ± 33 J/K/mol and 479 ± 33 J/K/mol | 992.39 ± 1.1 kg/m3 and 992.41 ± 1.1 kg/m3
318.15 K, m1 = 0.07 | 483.8 ± 15 J/K/mol | 995.31 ± 1 kg/m3
318.15 K, m1 = 0.1502 | 473.6 ± 7.7 J/K/mol | 1001.76 ± 0.99 kg/m3
318.15 K, m1 = 0.1999 | 486.3 ± 6.3 J/K/mol | –
318.15 K, m1 = 0.3018 | 489.2 ± 4.9 J/K/mol | –
318.15 K, m1 = 0.5001 | 493.4 ± 4 J/K/mol | –
318.15 K, m1 = 0.7003 | 494.2 ± 3.5 J/K/mol | –
318.15 K, m1 = 0.958 | 475 ± 3.4 J/K/mol | –
